Columns and labels:
Type in all cases: physicochemical
[1] = degree of order S (dichroic ratio CR) in ZLI 1840 at room temperature; set-up: key: S = (CR-1)/(CR+2), with CR = E∥/E⊥ dichroic ratio; details: ZLI 1840 wide-range mixture (Merck)
Method: (§1) The degrees of order S and the solubilities L, both measured at room temperature in the ZLI 1840 wide-range mixture from Merck, are summarized in Table 1 for Examples 1-18. The degrees of order S and the solubilities L for Examples 19-32, measured at room temperature in the […] liquid crystal mixture from Merck, are summarized in Table 3.
(§2) The degree of order S was determined in accordance with the known equation S=(CR-1)/(CR+2), using commercial measuring cells with homogeneous edge orientation. The dichroic ratio CR was determined by measuring the extinctions E^.parallel. (measured using polarized light parallel to the preferred direction of the nematic phase) and E^.perp. (measured using polarized light perpendicular to the preferred direction of the nematic phase) and using the relationship CR=E^.parallel. /E^.perp. the dye concentration being chosen so that E^.parallel. was from 1 to 2. The measurements were carried out using a Beckman Acta CIII spectrophotometer.

[2] = solubility L in ZLI 1840 at room temperature; details: ZLI 1840 (Merck), stirred 1 week
Method: as §1
(§3) The solubility was determined as follows: 50 mg of the particular dye were stirred into 1 ml of ZLI 1840 at room temperature for 1 week, and saturation of the soluton was determined by comparing extinction values.

[3] = light-stability, high-speed exposure of the measuring cell in a Suntest; details: 25° C
Method: The light-stability was determined by high-speed exposure of the measuring cell in a Suntest from Hanau, at 25° C. In this procedure, the decrease in E^.parallel. was measured. The initial extinction E^.parallel. and the exposure time E^.parallel.80% after which E^.parallel. has decreased to 80% are shown in Table 2 for Examples 5, 8, 9, 10, 11, 12, 13, 14 and 15. The percentage change in E^.parallel.0 is plotted against the exposure time in FIGS. 2, 3 and 4 for Examples 8, 11 and 15.

[4] = degree of order S (dichroic ratio CR) in ZLI 1957/5 at room temperature; details: ZLI 1957/5 liquid crystal mixture (Merck)
Method: as §1, §2

[5] = solubility L in ZLI 1957/5 at room temperature; details: ZLI 1957/5 liquid crystal mixture (Merck)
Method: as §1, §3

| SMILES | Degree of order S [1] | Solubility L [2] | exposure time E∥80% after which E∥ has decreased to 80% [3] | Degree of order S [4] | Solubility L [5] |
| --- | --- | --- | --- | --- | --- |
| Cc1nn(-c2ccc(N=Nc3ccc(N4CCOCC4)cc3)cc2)nc1C [Example 1] | 0,64 | – | – | – | – |
| CN(C)c1ccc(N=Nc2ccc(-n3nc4c(n3)CCCC4)cc2)cc1 [Example 2] | 0,71 | 1,4% | – | – | – |
| Cc1ccc2nn(-c3cc(C)c(N=Nc4cc(C)c(N=Nc5ccc(N(C)C)cc5)cc4C)cc3C)nc2c1 [Example 9] | 0,76 | 0,5% | 111 h | – | – |
| Cc1ccc2nn(-c3ccc(N=Nc4ccc(N=Nc5ccc(N)cc5C)cc4C)cc3C)nc2c1 [Example 11] | – | – | 170 h | – | – |
| CCCCN(CCCC)c1ccc(N=Nc2ccc(N=Nc3ccc(-n4nc5ccc(C)cc5n4)c(C)c3)c(C)c2)cc1 [Example 13] | 0,74 | > 5% | 97 h | – | – |
| CCCCOc1ccc(N=Nc2ccc(N=Nc3ccc(-n4nc5ccc(C)cc5n4)c(C)c3)c(C)c2)c(C)c1 [Example 16] | 0,74 | 0,5% | – | – | – |
| Cc1ccc2nn(-c3ccc(N=Nc4cc(C)c(N=Nc5ccc(OCc6ccccc6)cc5C)cc4C)cc3C)nc2c1 [Example 17] | 0,74 | 0,6% | – | – | – |
| CCC1CCC(c2ccc(COc3ccc(N=Nc4cc(C)c(N=Nc5ccc(-n6nc7ccc(C)cc7n6)c(C)c5)cc4C)c(C)c3)cc2)CC1 (stereo not shown) [Example 18] | 0,77 | 2,9% | – | – | – |
| CCCCOC(=O)c1ccc2nn(-c3ccc(N=Nc4cc(C)c(N=Nc5ccc(N(C)C)cc5)cc4C)cc3C)nc2c1 [Example 19] | 0,76 | 0,3% | – | – | – |
| CCCCN(C)c1ccc(N=Nc2cc(C)c(N=Nc3ccc(-n4nc5ccc(C)cc5n4)c(C)c3)cc2C)cc1 [Example 20] | – | – | – | 0,74 | 2,0% |
| CCCCNc1ccc(N=Nc2ccc(N=Nc3ccc(-n4nc5ccc(C)cc5n4)c(C)c3)c(C)c2)cc1 [Example 22] | 0,77 | > 5% | – | – | – |
| Cc1ccc2nn(-c3ccc(N=Nc4ccc(N=Nc5ccc(NCc6ccccc6)cc5)cc4C)cc3C)nc2c1 [Example 23] | 0,79 | 1,9% | – | – | – |
| Cc1ccc2nn(-c3ccc(N=Nc4ccc(N=Nc5ccc(N(C)Cc6ccccc6)cc5)cc4C)cc3C)nc2c1 [Example 25] | 0,76 | 1,9% | – | – | – |
| Cc1ccc2nn(-c3ccc(N=Nc4ccc(N=Nc5ccc(N(C)C)cc5C)cc4C)cc3C)nc2c1 [Example 26] | 0,76 | 2,0% | – | – | – |
| CCCCc1ccc2nn(-c3ccc(N=Nc4ccc(N=Nc5ccc(N(C)C)cc5C)cc4C)cc3C)nc2c1 [Example 27] | 0,75 | 3,9% | – | – | – |
| Cc1ccc2nn(-c3ccc(N=Nc4ccc(N=Nc5ccc(N(C)CC(C)C)cc5C)cc4C)cc3C)nc2c1 [Example 28] | – | – | – | 0,72 | 1,5% |
| CCCCN(C)c1ccc(N=Nc2cc(C)c(N=Nc3ccc(-n4nc5ccc(C)cc5n4)c(C)c3)cc2OC)cc1 [Example 29] | – | – | – | 0,71 | 0,5% |
| CCCCN(C)c1ccc(N=Nc2cc(OC)c(N=Nc3ccc(-n4nc5ccc(C)cc5n4)c(C)c3)cc2OC)cc1 [Example 30] | – | – | – | 0,67 | 0,3% |
| CCCCc1ccc2nn(-c3ccc(N=Nc4cc(C)c(N=Nc5ccc(NC)c6ccccc56)cc4C)cc3C)nc2c1 [Example 31] | 0,70 | 2,0% | – | – | – |
| CCCCc1ccc2nn(-c3ccc(N=Nc4cc(C)c(N=Nc5ccc(N(C)C)c6ccccc56)cc4C)cc3C)nc2c1 [Example 32] | 0,65 | 0,1% | – | – | – |

The next lines start with the values.

| Degree of order S [1] | Solubility L [2] | exposure time E∥80% after which E∥ has decreased to 80% [3] | Degree of order S [4] | Solubility L [5] | SMILES |
| --- | --- | --- | --- | --- | --- |
| 0,74 | 0,4% | – | – | – | Cc1nn(-c2ccc(N=Nc3ccc(N=Nc4ccc(N(C)C)cc4)cc3)cc2)nc1C [Example 3] |
| 0,70 | 0,7% | – | – | – | COc1cc(N=Nc2ccc(N(C)C)cc2)ccc1N=Nc1ccc(-n2nc(C)c(C)n2)cc1 [Example 4] |
| 0,73 | 0,2% | 101 h | – | – | CCOC(=O)c1nn(-c2ccc(N=Nc3cc(C)c(N=Nc4ccc(N(C)C)cc4)cc3C)cc2)nc1C [Example 5] |
| 0,61 | 1,8% | – | – | – | Cc1nn(-c2cc(Br)c(N=Nc3ccc(N=Nc4ccc(N(C)C)cc4)cc3)c(Br)c2)nc1C [Example 6] |
| 0,74 | < 0,1% | – | – | – | Cc1nn(-c2cc(C#N)c(N=Nc3ccc(N=Nc4ccc(N(C)C)cc4)cc3)c(C#N)c2)nc1C [Example 7] |
| 0,74 | 0,5% | 27,5 h | – | – | CCOC(=O)c1nn(-c2ccc(N=Nc3ccc(N=Nc4ccc(N(C)C)cc4)c4ccccc34)cc2)nc1C [Example 8] |
| 0,73 | 0,6% | 147 h | – | – | Cc1ccc2nn(-c3ccc(N=Nc4cc(C)c(N=Nc5ccc(N(C)C)cc5)cc4C)cc3)nc2c1 [Example 10] |
| 0,76 | > 2,3% | 111 h | – | – | CCCCc1ccc2nn(-c3ccc(N=Nc4cc(C)c(N=Nc5ccc(N(C)C)cc5)cc4C)cc3C)nc2c1 [Example 14] |
| 0,79 | 2,8% | 68 h | – | – | CCCCc1ccc2nn(-c3ccc(N=Nc4ccc(N=Nc5ccc(N(C)C)cc5)cc4C)cc3C)nc2c1 [Example 15] |
| 0,76 | 2,8% | – | – | – | Cc1ccc2nn(-c3ccc(N=Nc4ccc(N=Nc5ccc(N(C)C)cc5)cc4C)cc3C)nc2c1 [Example 21] |
| 0,77 | > 5% | – | – | – | CCCCN(C)c1ccc(N=Nc2ccc(N=Nc3ccc(-n4nc5ccc(C)cc5n4)c(C)c3)c(C)c2)cc1 [Example 24] |
